Test [1] concerns the target T1, Macrophage migration inhibitory factor (Homo sapiens, UniProt P14174).
T1 sequence (P14174 whole entry): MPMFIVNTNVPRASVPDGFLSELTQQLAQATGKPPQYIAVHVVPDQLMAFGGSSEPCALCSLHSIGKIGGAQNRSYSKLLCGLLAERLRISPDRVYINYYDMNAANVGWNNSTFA
The experiment in a line: Binding affinity to recombinant biotinylated human MIF expressed in Escherichia coli BL21 DE3 by surface plasmon resonance assay. Background: SPR reads the build-up and loss of mass on a sensor chip optically.

The target in test [2] is T1, Macrophage migration inhibitory factor. The experiment in a line: Inhibition of recombinant biotinylated human MIF tautomerase activity expressed in Escherichia coli BL21 DE3 assessed as reduction in tautomerization of keto-p-hydroxyphenylpyruvate using keto-p-hydroxyphenylpyrivate as substrate preincubated for 30 mins followed by substrate addition by HTS assay.
Test [3] shares this target. The experiment in a line: Inhibition of recombinant human MIF expressed in Escherichia coli BL21 DE3 binding to recombinant soluble human CD74 receptor ectodomain (73 to 232 residues) expressed in Escherichia coli BL21 (DE3) pLysS using p-nitrophenyl phosphate as substrate by ELISA.
Test [4] has the same target. The experiment in a line: Inhibition of MIF-induced IL-8 secretion in human foreskin fibroblasts incubated for 30 mins by ELISA. In general terms: In an ELISA, binding on a coated surface is turned into a signal by an enzyme label.
Test [5] has the same target. The experiment in a line: Non-competitive inhibition of recombinant human MIF assessed as inhibition constant using varying levels of p-hydroxyphenylpyruvate as substrate by Lineweaver-Burk plot analysis.

The values below come from ChEMBL document CHEMBL4665853, “Inhibition of Macrophage Migration Inhibitory Factor by a Chimera of Two Allosteric Binders” (ACS Med Chem Lett, 2020).

Consider `CC(C)C(=O)c1c(Cc2cccc(/N=N/c3ccc4c(S(=O)(=O)O)cc(S(=O)(=O)O)c(N)c4c3O)c2)nn2ccccc12`, for which the Kd (in general, the free concentration of one partner at which half of the binding sites on the other are occupied at equilibrium, for simple one-to-one binding) in test [1] amounted to 6.86 µM. The half-inhibitory concentration (IC50) (in general, the concentration needed to halve the response being measured) was 7.59 µM in test [2], 0.93 µM in test [3] and 4.42 µM in test [4].

Consider `CC(C)C(=O)c1c(C(C)C)nn2ccccc12` [IBUDILAST], for which the inhibition constant (Ki) (commonly a dissociation constant, usually derived from enzyme kinetics or from competition with a known ligand) in test [5] came out at 30.9 µM. In test [1], the Kd was 1.4 µM.
